What was measured:
[1] = system: mouse J774A.1 macrophages; test: CPPD-induced IL-1β production in LPS-primed J774A.1 macrophages (ELISA); format: cell-based; conditions: 1 μg/ml LPS 30 min, then 100 μg/ml CPPD 24 h; FIG. 2; p<0.001 compared to CPPD alone
Protocol: (§1) The mouse macrophages cell line J774A.1 and human monocytic leukemia cell line THP-1 was obtained from the American Type Culture Collection (Rockville, Md.) and cultured in RPMI 1640 medium supplemented with 10% heat-inactivated fetal bovine serum (FBS) and 2 mM L-glutamine (all from Life Technologies, Carlsbad, Calif.) at 37° C. in a 5% CO2 incubator. To induce monocyte-to-macrophage differentiation, THP-1 cells were cultured for 48 h in RPMI-1640 medium supplemented with 100 nM phorbol 12-myristate 13-acetate (Sigma-Aldrich).
(§2) In FIGS. 1 and 2, J774A.1 macrophages (1×10^5 cells/500 μl medium/well) were incubated for 30 min with or without Ginsenoside M1, then for 30 min with or without 1 μg/ml LPS (from Escherichia coli 0111:B4, purchased from Sigma, St. Louis, Mo.) in the continued presence or absence of Ginsenoside M1, and then for 24 h with or without 100 μg/ml MSU or 100 μg/ml CPPD (all purchased from InvivoGen, San Diego, Calif.). The levels of IL-1β in the culture medium were measured by ELISA.
(§3) For ELISA assay, 50 μl of biotinylated antibody reagent and 50 μl of culture medium were added to an anti-mouse IL-1β or IL-6 precoated stripwell plate, and incubated at room temperature for 2 h. […] Following the addition of 100 μl of provided stop solution to each well to stop the reaction, the absorbance of the plate was measured by a microplate reader at a 450 nm wavelength. […]

[2] = system: LPS-activated J774A.1 macrophages; test: LPS-induced NLRP3 and proIL-1β expression in J774A.1 macrophages (Western blot); format: cell-based, mouse; conditions: 1 μg/ml LPS 6 h, FIG. 3
Protocol: as §1
In FIG. 3, J774A.1 macrophages (2×10^6 cells/2 ml medium/dish) were incubated for 30 min with or without Ginsenoside M1, then for 6 h with or without 1 μg/ml LPS (from Escherichia coli 0111:B4, purchased from Sigma, St. Louis, Mo.) in the continued presence or absence of Ginsenoside M1. The levels of NLRP3 and proIL-1β in the cell lysates were measured by Western blot. […]
J774A.1 macrophages were incubated for 30 min with or without Ginsenoside M1, then for 6 h with or without 1 μg/ml LPS in the continued presence or absence of Ginsenoside M1. The levels of NLRP3 and proIL-1β in the cell lysates were measured by Western blot.

[3] = system: mouse J774A.1 macrophages; test: MSU-induced IL-1β production in LPS-primed J774A.1 macrophages (ELISA); format: cell-based; conditions: 1 μg/ml LPS 30 min, then 100 μg/ml MSU 24 h; FIG. 1; p<0.001 compared to MSU alone
Protocol: as §1, §2, §3

human THP-1 macrophages = test: MSU-induced IL-1β, TNF-α and IL-6 production in LPS-primed THP-1 macrophages (ELISA); format: cell-based; conditions: 1 μg/ml LPS 6 h, then 100 μg/ml MSU 24 h
Protocol: as §1
In FIG. 4-6, THP-1 macrophages (1×10^5 cells/500 μl medium/well) were incubated for 6 h with or without 1 μg/ml LPS, then for 30 min with or without Ginsenoside M1, in the continued presence or absence of LPS, and then for 24 h with or without 100 μg/ml MSU. The levels of IL-1β in the culture medium were measured by ELISA.
For ELISA assay, 50 μl of biotinylated antibody reagent and 50 μl of culture medium were added to an anti-mouse IL-1β or IL-6 precoated stripwell plate, and incubated at room temperature for 2 h. After washing the plate three times with washing buffer, 100 μl of diluted streptavidin-HRP (horseradish peroxidase) concentrate was added to each well and incubated at room temperature for 30 min. The washing process was repeated; then 100 μl of a premixed tetramethylbenzidine substrate solution was added to each well and developed at room temperature in the dark for 30 min. Following the addition of 100 μl of provided stop solution to each well to stop the reaction, the absorbance of the plate was measured by a microplate reader at a 450 nm wavelength.
To confirm the anti-inflammatory activities of Ginsenoside M1, human THP-1 macrophages were incubated for 6 h with or without 1 μg/ml LPS, then for 30 min with or without Ginsenoside M1, in the continued presence or absence of LPS, and then for 24 h with or without 100 μg/ml MSU. The levels of IL-1β in the culture medium were measured by ELISA.

C57BL/6 mice = test: MSU-induced peritonitis in vivo (acute gout inflammation); design: species or system mouse; conditions: 60 mg/kg oral by gavage day 0, 1, 2, 3 mg MSU i.p., p<0.001 compared to MSU-injection group
Protocol: In FIG. 7-9, the animal experiments were conducted in accordance with the guidelines of the National Institutes of Health and approved by the Institutional Animal Care and Use Committee of National Ilan University. Male C57BL/6 mice were purchased from the National Laboratory Animal Center (Taipei, Taiwan). The animals were provided a chow diet and water ad libitum under conditions of 22-24° C., 40-70% relative humidity, and a 12 h light-dark cycle. Ginsenoside M1 (60 mg/kg body weight) was oral administered daily by gavage at day 0, 1 and 2. Acute gout inflammation was induced by intraperitoneal injection each mice with 3 mg of MSU in 0.5 mL of phosphate-buffered saline (PBS) at day 0 and day 2 1 h after Ginsenoside M1 administration. Control mice received 0.5 mL PBS without MSU (n=6). After 4 h, all mice were sacrificed using neck breaking, and the mice were intraperitoneally injected with 5 mL of PBS. The peritoneal fluid was then collected, and the volume of peritoneal fluid was about 4 mL from each mouse. The collected peritoneal exudate cells were washed and resuspended in PBS. The cells were stained with fluorescent antibodies against the neutrophils specific surface markers Ly-6G and CD45 (eBioscience, San Diego, Calif., USA) for 20 min at 37° C. in the dark, and the cell populations were sorted using a FACScan flow cytometer (Becton-Dickinson, San Jose, Calif.). The levels of IL-1β and IL-6 in the peritoneal fluid were measured by ELISA.
For ELISA assay, 50 μl of biotinylated antibody reagent and 50 μl of culture medium were added to an anti-mouse IL-1β or IL-6 precoated stripwell plate, and incubated at room temperature for 2 h. After washing the plate three times with washing buffer, 100 μl of diluted streptavidin-HRP (horseradish peroxidase) concentrate was added to each well and incubated at room temperature for 30 min. […] Following the addition of 100 μl of provided stop solution to each well to stop the reaction, the absorbance of the plate was measured by a microplate reader at a 450 nm wavelength.

CC(C)=CCC[C@](C)(O[C@@H]1OC(CO)[C@@H](O)[C@@H](O)C1O)[C@H]1CC[C@]2(C)C1[C@H](O)CC1[C@@]3(C)CC[C@H](O)C(C)(C)C3CC[C@]12C (stereo partly drawn) [Ginsenoside M1, 20-O-β-D-glucopyranosyl-20(S)-protopanaxadiol]
significantly reduces: levels of MSU-induced Ly-6G+ neutrophils in the peritoneal fluid (C57BL/6 mice; flow cytometry, FIG. 9)
reduced: IL-1β secretion in the culture medium [1] | level of NLRP3 in the cell lysates [2] | level of proIL-1β in the cell lysates [2] | IL-1β secretion in the culture medium [3] | IL-1β production in the culture medium (human THP-1 macrophages; FIG. 4, p<0.05 and p<0.001 compared to MSU alone) | TNF-α production in the culture medium (human THP-1 macrophages; FIG. 5, p<0.05 and p<0.001 compared to MSU alone) | IL-6 production in the culture medium (human THP-1 macrophages; FIG. 6, p<0.001 compared to MSU alone)
significantly reduced: MSU-induced IL-1β production in the murine peritoneal fluid (C57BL/6 mice; FIG. 7) | MSU-induced IL-6 production in the murine peritoneal fluid (C57BL/6 mice; FIG. 8)

From US10124017B2, “Use of Ginsenoside M1 for preventing or treating gout” (priority 2015, dated 2018)
